In publication PMC4247381, “Control of somatic membrane potential in nociceptive neurons and its implications for peripheral nociceptive transmission” (Pain, 2014):
Read-outs that look alike come from different tables or passages of the source.

What was measured:
Kv7.2/Kv7.3 = target: T1, Kv7.2/Kv7.3 (Homo sapiens, UniProt O43525+O43526); assay: Rb+ efflux assay and whole-cell patch clamp in CHO cells expressing Kv7.[…]/Kv7.[…] (activator); type: cell-based
T1 construct: gene KCNQ2; with Kv7.3 (KCNQ3)

Cav3.2 = target: T2, Cav3.2 (Homo sapiens, UniProt O95180); assay: whole-cell patch clamp of recombinant human Cav3.[…] in HEK293 cells (enhancer); type: cell-based
T2 construct: gene CACNA1H
T2 sequence (O95180 whole entry): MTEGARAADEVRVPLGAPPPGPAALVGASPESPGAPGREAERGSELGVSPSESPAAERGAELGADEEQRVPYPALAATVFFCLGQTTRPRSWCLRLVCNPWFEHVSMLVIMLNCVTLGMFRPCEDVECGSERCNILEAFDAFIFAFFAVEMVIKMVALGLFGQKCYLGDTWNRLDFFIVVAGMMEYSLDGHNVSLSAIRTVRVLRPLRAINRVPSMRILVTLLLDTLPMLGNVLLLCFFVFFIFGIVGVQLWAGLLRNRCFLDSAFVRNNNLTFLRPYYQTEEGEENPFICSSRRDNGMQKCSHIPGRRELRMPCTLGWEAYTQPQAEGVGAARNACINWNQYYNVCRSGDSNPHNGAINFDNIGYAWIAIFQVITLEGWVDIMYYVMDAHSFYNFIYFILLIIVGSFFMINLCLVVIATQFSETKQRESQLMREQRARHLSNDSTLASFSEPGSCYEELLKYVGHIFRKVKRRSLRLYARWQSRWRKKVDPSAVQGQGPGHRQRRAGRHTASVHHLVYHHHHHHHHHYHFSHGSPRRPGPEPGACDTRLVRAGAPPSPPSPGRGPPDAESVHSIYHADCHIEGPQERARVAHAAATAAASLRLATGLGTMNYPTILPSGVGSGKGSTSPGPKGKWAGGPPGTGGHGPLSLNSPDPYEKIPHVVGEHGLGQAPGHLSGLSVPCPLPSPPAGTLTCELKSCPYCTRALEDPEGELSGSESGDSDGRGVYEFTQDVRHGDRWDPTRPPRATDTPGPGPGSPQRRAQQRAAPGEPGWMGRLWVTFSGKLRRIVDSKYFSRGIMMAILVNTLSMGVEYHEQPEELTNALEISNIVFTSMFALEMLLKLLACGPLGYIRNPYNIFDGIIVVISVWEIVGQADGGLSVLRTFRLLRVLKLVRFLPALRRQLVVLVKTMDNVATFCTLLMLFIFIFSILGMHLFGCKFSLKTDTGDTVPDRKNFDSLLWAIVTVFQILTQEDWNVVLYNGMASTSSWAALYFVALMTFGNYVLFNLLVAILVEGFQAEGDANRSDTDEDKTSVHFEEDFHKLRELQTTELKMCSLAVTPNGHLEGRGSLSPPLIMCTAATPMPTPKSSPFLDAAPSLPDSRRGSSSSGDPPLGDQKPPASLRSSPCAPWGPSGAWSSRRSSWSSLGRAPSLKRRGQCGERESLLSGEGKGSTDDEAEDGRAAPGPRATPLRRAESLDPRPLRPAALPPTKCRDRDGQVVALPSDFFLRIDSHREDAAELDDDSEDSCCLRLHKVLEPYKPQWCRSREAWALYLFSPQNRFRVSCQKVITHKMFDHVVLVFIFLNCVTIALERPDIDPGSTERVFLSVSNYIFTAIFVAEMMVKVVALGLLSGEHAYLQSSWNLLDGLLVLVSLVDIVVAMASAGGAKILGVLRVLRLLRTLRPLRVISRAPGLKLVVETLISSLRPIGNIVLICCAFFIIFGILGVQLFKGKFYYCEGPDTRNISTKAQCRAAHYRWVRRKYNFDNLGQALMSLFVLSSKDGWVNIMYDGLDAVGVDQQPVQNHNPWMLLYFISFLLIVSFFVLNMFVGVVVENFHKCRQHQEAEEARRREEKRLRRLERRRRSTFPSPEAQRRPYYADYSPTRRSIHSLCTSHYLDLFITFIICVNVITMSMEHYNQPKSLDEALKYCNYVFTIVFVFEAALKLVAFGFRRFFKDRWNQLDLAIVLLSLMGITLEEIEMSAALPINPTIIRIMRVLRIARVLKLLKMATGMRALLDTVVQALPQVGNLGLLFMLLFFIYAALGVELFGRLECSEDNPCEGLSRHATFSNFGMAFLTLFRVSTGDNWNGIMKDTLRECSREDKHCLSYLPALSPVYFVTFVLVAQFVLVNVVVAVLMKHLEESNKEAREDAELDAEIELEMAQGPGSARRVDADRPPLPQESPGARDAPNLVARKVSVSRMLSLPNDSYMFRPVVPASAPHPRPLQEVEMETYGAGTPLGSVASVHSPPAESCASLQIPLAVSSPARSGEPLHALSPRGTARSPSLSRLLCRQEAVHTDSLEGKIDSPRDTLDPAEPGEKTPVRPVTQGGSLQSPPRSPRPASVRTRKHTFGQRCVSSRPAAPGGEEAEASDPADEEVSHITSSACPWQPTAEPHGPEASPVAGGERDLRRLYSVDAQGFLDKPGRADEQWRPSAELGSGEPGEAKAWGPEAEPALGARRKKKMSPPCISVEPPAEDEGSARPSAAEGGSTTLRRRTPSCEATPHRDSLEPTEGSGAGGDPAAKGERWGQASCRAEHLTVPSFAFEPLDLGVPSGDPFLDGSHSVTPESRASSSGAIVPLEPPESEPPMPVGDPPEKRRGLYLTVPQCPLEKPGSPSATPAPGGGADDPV

T1 sequence (O43526 whole entry): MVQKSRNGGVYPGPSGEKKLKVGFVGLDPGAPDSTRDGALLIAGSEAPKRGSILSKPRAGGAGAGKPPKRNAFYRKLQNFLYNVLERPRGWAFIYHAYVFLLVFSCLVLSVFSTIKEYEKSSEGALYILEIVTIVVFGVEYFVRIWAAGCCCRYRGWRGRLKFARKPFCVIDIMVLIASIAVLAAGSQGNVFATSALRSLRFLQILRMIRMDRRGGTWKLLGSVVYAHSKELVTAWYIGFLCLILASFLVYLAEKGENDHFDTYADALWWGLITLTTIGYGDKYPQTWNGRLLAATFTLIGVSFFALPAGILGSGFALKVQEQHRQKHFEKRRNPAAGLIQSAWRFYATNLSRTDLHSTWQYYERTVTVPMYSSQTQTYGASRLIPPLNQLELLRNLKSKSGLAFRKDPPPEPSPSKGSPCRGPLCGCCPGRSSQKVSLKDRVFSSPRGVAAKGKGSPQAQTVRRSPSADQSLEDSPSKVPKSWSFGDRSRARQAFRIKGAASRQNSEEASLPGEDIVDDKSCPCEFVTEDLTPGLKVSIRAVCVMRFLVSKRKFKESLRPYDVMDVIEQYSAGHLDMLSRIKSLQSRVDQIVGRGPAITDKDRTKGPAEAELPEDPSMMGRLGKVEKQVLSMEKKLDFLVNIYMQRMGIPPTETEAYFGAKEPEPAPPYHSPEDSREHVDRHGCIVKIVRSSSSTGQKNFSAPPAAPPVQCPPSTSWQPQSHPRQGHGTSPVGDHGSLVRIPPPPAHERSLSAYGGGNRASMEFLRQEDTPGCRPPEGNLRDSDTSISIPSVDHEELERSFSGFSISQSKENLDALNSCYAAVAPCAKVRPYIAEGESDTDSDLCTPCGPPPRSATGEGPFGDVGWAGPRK
T1 sequence (O43525 whole entry): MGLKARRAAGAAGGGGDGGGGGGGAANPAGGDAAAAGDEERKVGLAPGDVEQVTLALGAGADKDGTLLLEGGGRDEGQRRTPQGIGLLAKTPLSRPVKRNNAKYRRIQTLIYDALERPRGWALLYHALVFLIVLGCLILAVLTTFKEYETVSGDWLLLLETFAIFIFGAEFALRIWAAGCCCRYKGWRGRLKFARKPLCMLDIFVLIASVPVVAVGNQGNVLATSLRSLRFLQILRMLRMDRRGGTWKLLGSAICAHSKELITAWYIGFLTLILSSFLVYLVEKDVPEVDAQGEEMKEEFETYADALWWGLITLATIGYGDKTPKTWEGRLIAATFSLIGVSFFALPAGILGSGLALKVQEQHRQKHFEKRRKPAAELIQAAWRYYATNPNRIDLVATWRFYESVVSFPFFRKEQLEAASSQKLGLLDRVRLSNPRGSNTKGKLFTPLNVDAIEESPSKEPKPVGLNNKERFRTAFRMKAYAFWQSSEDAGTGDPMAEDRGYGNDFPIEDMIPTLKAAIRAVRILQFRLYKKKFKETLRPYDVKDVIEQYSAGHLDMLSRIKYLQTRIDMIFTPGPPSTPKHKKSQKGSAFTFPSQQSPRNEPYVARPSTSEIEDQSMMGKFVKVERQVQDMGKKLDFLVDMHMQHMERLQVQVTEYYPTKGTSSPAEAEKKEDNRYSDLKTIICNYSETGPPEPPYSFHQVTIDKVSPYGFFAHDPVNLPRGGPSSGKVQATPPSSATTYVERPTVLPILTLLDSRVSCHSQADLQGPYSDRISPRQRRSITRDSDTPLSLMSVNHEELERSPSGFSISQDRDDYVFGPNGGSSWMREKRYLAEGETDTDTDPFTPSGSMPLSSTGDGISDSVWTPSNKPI

Structure (SMILES): Oc1c(Cl)cc(Cl)cc1Sc1cc(Cl)cc(Cl)c1O [BITH, Bithionol]
- EC50 (Kv7.2/Kv7.3; read-out: EC50): 4900 ± 1080 nM

Structure (SMILES): CCOC(=O)Nc1ccc(NCc2ccc(F)cc2)cc1N [RTG, Retigabine]
- EC50 (Kv7.2/Kv7.3): 700 ± 90 nM

Structure (SMILES): O=C1N=C2C=CC=CN2C12Cc1ccccc1C2 [ST101, spiro[imidazo[1,2-a]pyridine-3,2-indan]-2(3H)-one]
- EC50 (Cav3.2): 0.12 ± 0.04 nM
